The record followed here is ChEMBL document CHEMBL3817770, “Design and synthesis of 5-aminolaevulinic acid/3-hydroxypyridinone conjugates for photodynamic therapy: enhancement of protoporphyrin IX production and photo-toxicity in tumor cells” (Medchemcomm, 2016).

Molecules are shown by their SMILES. Calls of active or inactive are those of the source. The rule behind the calls is not given here.

The subject of series [1] is A549. Briefly: Increase in protoporphyrin 9 levels in human A549 cells at 100 uM after 24 hrs by fluorescence spectrometer plate reader method relative to ALA. The series is classed as functional.
Series [2] has as its system KB. Briefly: Increase in protoporphyrin 9 levels in human KB cells at 100 uM after 24 hrs by fluorescence spectrometer plate reader method relative to ALA. It is filed as functional.
Series [3] has as its system LNCaP. Kind of series: Increase in protoporphyrin 9 levels in human LNCAP cells at 100 uM after 24 hrs by fluorescence spectrometer plate reader method relative to ALA. It is filed as functional.
Series [4] is described as follows: Increase in protoporphyrin 9 levels in human BPH1 cells at 100 uM after 24 hrs by fluorescence spectrometer plate reader method relative to ALA. The series is classed as ADME, cell-based. Conditions: bph-1, 24 h.
Series [5] has as its system A549. Kind of series: Increase in protoporphyrin 9 levels in human A549 cells at 200 uM after 3 to 24 hrs by fluorescence spectrometer plate reader method. It is filed as functional, cell-based.
For series [6], the system named is LNCaP. Briefly: Increase in protoporphyrin 9 levels in human LNCAP cells at 200 uM after 3 to 24 hrs by fluorescence spectrometer plate reader method. The series is classed as functional, cell-based.
Series [7] is described as follows: Increase in protoporphyrin 9 levels in human BPH1 cells at 200 uM after 3 to 24 hrs by fluorescence spectrometer plate reader method. It is filed as ADME, cell-based. The settings on record: bph-1, 200 µM.
Series [8] has as its system KB. Briefly: Increase in protoporphyrin 9 levels in human KB cells at 200 uM after 3 to 24 hrs by fluorescence spectrometer plate reader method. The series is classed as functional, cell-based.
Series [9] has as its system A549. Kind of series: Phototoxicity in human A549 cells assessed as cell survival at 200 uM incubated for 4 hrs followed by irradiation with blue light for 5 mins by MTT assay. The series is classed as functional.
The test system of series [10] is KB. Briefly: Phototoxicity in human KB cells assessed as cell survival at 200 uM incubated for 4 hrs followed by irradiation with blue light for 5 mins by MTT assay. The series is classed as functional. Background: Formazan colour is commonly taken as a measure of viable cells.
Series [11] concerns LNCaP. Briefly: Phototoxicity in human LNCAP cells assessed as cell survival at 200 uM incubated for 4 hrs followed by irradiation with blue light for 5 mins by MTT assay. The series is classed as functional.
Series [12] can be described thus: Phototoxicity in human BPH1 cells assessed as cell survival at 200 uM incubated for 4 hrs followed by irradiation with blue light for 5 mins by MTT assay. The series is classed as cell-based, BPH-1. The settings on record: bph-1, 4 h, 200 µM.
Series [13] relates to A549. Briefly: Phototoxicity in human A549 cells assessed as cell survival at 100 uM incubated for 4 hrs followed by irradiation with blue light for 5 mins by MTT assay. The series is classed as functional.
For series [14], the system named is MCF7. Kind of series: Phototoxicity in human MCF7 cells assessed as cell survival at 100 uM incubated for 4 hrs followed by irradiation with blue light for 5 mins by MTT assay. The series is classed as functional.
Series [15] concerns LNCaP. Kind of series: Phototoxicity in human LNCAP cells assessed as cell survival at 100 uM incubated for 4 hrs followed by irradiation with blue light for 5 mins by MTT assay. It is filed as functional.
The subject of series [16] is A549. Kind of series: Dark toxicity in human A549 cells at 200 uM after 4 hrs by MTT assay. It is filed as cell-based. Conditions: a549, 4 h.
The subject of series [17] is MCF7. Briefly: Dark toxicity in human MCF7 cells at 200 uM after 4 hrs by MTT assay. It is filed as cell-based. Conditions: mcf7, 4 h.
Series [18] has as its system LNCaP. Kind of series: Dark toxicity in human LNCAP cells at 200 uM after 4 hrs by MTT assay. The series is classed as cell-based.
Series [19] in a line: Dark toxicity in human BPH1 cells at 200 uM after 4 hrs by MTT assay. The series is classed as cell-based. Conditions: bph-1, 4 h.

Regarding `CCCCn1ccc(=O)c(O)c1C(=O)N[C@@H](CC(C)C)C(=O)NCC(=O)CCC(=O)OC`, the outcome in the series with A549 [1], in the series with KB [2], in the series with LNCaP [3], in the series with A549 [5], in the series on LNCaP [6] and in the series with KB [8] was inactive. Besides, the result in the series with A549 [9], with KB [10], in the series on LNCaP [11], in the series on A549 [13], in the series with MCF7 [14] and in the series on LNCaP [15] was inactive. Besides, the Activity result (in series [4]; in [7]; in series [12]; in the series with A549 [16]; in the series on MCF7 [17]; with LNCaP [18]) was “Non-toxic” in each case. Moreover, in series [19], the Activity result was “Non-toxic”.

With `CCCCCCn1ccc(=O)c(O)c1C(=O)N[C@@H](Cc1ccccc1)C(=O)NCC(=O)CCC(=O)OC`, the outcome in the series with A549 [1], in the series on KB [2], with LNCaP [3], in the series with A549 [5], with LNCaP [6] and in the series on KB [8] was inactive. The result with A549 [9], with KB [10], with LNCaP [11], with A549 [13], in the series on MCF7 [14] and in the series with LNCaP [15] was inactive. Also, the Activity result (in series [4]; in series [7]; in [12]; in the series on A549 [16]; with MCF7 [17]; in the series on LNCaP [18]) was “Non-toxic” in each case. The Activity entry in [19] is recorded as “Non-toxic”.

Regarding `CCn1ccc(=O)c(O)c1C(=O)N[C@@H](CC(C)C)C(=O)NCC(=O)CCC(=O)OC`, the result in the series with A549 [1], with KB [2], with LNCaP [3], with A549 [5], in the series with LNCaP [6] and with KB [8] was inactive. For the same molecule, the result in the series on A549 [9], with KB [10], in the series on LNCaP [11], in the series with A549 [13], in the series with MCF7 [14] and in the series with LNCaP [15] was inactive. For the same molecule, the Activity result (in series [4]; in series [7]; in series [12]; in the series on A549 [16]; with MCF7 [17]; in the series with LNCaP [18]) was “Non-toxic” throughout. The Activity result in [19] is on record as “Non-toxic”.

In the case of `COC(=O)CCC(=O)CNC(=O)[C@H](CC(C)C)NC(=O)c1c(O)c(=O)ccn1C`, the outcome with A549 [1], with KB [2], with LNCaP [3], with A549 [5], in the series on LNCaP [6] and in the series with KB [8] was inactive. Also, the outcome in the series with A549 [9], in the series with KB [10], in the series with LNCaP [11], with A549 [13], with MCF7 [14] and in the series on LNCaP [15] was inactive. In addition, the Activity result (in series [4]; in [7]; in [12]; in the series on A549 [16]; in the series on MCF7 [17]; in the series on LNCaP [18]) was “Non-toxic” in each case. Also, the Activity result in series [19] is given as “Non-toxic”.

`CCCCn1ccc(=O)c(O)c1C(=O)N[C@@H](Cc1ccccc1)C(=O)NCC(=O)CCC(=O)OC`: the result with A549 [1], in the series on KB [2], in the series on LNCaP [3], in the series on A549 [5], in the series with LNCaP [6] and in the series on KB [8] was inactive. Moreover, the result in the series on A549 [9], in the series on KB [10], in the series on LNCaP [11], in the series with A549 [13], in the series with MCF7 [14] and with LNCaP [15] was inactive. The Activity entry (in series [4]; in series [7]; in [12]; with A549 [16]; with MCF7 [17]; with LNCaP [18]) was “Non-toxic” throughout. For the same molecule, the Activity result in series [19] is given as “Non-toxic”.

`CCn1ccc(=O)c(O)c1C(=O)N[C@@H](Cc1ccccc1)C(=O)NCC(=O)CCC(=O)OC`: the outcome in the series on A549 [1], in the series with KB [2], in the series on LNCaP [3], in the series on A549 [5], in the series on LNCaP [6] and in the series with KB [8] was inactive. The result in the series with A549 [9], in the series with KB [10], with LNCaP [11], with A549 [13], in the series on MCF7 [14] and in the series on LNCaP [15] was inactive. In addition, the Activity result (in series [4]; in [7]; in [12]; in the series with A549 [16]; with MCF7 [17]; in the series on LNCaP [18]) was “Non-toxic” each time. Also, the Activity entry in [19] is recorded as “Non-toxic”.

On to `COCCn1ccc(=O)c(O)c1C(=O)N[C@@H](CC(C)C)C(=O)NCC(=O)CCC(=O)OC`, for which the result with A549 [1], in the series with KB [2], with LNCaP [3], in the series with A549 [5], in the series on LNCaP [6] and in the series on KB [8] was inactive. The outcome in the series on A549 [9], in the series on KB [10], in the series on LNCaP [11], in the series with A549 [13], in the series on MCF7 [14] and with LNCaP [15] was inactive. In addition, the Activity result (in [4]; in series [7]; in series [12]; in the series on A549 [16]; in the series on MCF7 [17]; in the series with LNCaP [18]) was “Non-toxic” in each case. Moreover, the Activity result in series [19] is recorded as “Non-toxic”.

In the case of `COCCn1ccc(=O)c(O)c1C(=O)N[C@@H](Cc1ccccc1)C(=O)NCC(=O)CCC(=O)OC`, the outcome with A549 [1], in the series with KB [2], in the series with LNCaP [3], in the series with A549 [5], with LNCaP [6] and in the series with KB [8] was inactive. Besides, the outcome in the series with A549 [9], with KB [10], with LNCaP [11], in the series with A549 [13], with MCF7 [14] and in the series with LNCaP [15] was inactive. For the same molecule, the Activity entry (in [4]; in [7]; in series [12]; in the series with A549 [16]; with MCF7 [17]; with LNCaP [18]) was “Non-toxic” each time. In addition, the Activity result in series [19] is recorded as “Non-toxic”.
